The test system of this test is M. tuberculosis H37Rv. Put plainly: MIC determination by microplate alamar blue assay (MABA). It is filed as cell-based. To be noted: Mycobacterium tuberculosis, Mtb H37Rv, MABA. (In general: The colour change of resazurin is a common sign of viable cells or microbes.)

Values after ≈ are worked out from the molar mass of the structure shown.

The MIC is the smallest concentration in the dilution series that meets the test's criterion for growth inhibition. Take `CN(Cc1cn(C2CCCCC2)nn1)c1nc(=O)c2cc(C(F)(F)F)cc([N+](=O)[O-])c2s1` [Compound 1, 2-{[(1-cyclohexyl-1H-1,2,3-triazol-4-yl)methyl](methyl)amino}-BTZ]: the lowest concentration to inhibit growth (MIC) was 0.032 µM (≈ 0.015 µg/mL). Under “168 h”, this compound yielded an MIC of 0.032 µM (≈ 0.015 µg/mL).
Take `CN(Cc1cn(-c2ccncc2)nn1)c1nc(=O)c2cc(C(F)(F)F)cc([N+](=O)[O-])c2s1` [Compound 5]: the MIC was determined as 0.047 µM (≈ 0.0218 µg/mL).
On the same count and under the same terms, with `CN(Cc1cn(-c2cccnc2)nn1)c1nc(=O)c2cc(C(F)(F)F)cc([N+](=O)[O-])c2s1` [Compound 6] the figure was 0.17 µM (≈ 0.0788 µg/mL); with `CN(Cc1cn(-c2ccc(-c3ccccc3)cc2)nn1)c1nc(=O)c2cc(C(F)(F)F)cc([N+](=O)[O-])c2s1` [Compound 7], 0.44 µM (≈ 0.237 µg/mL); with `CN(Cc1cn(-c2ccc3ccccc3c2)nn1)c1nc(=O)c2cc(C(F)(F)F)cc([N+](=O)[O-])c2s1` [Compound 8], 0.057 µM (≈ 0.0292 µg/mL).
The compound `CN(Cc1cn(-c2cccc3ccccc23)nn1)c1nc(=O)c2cc(C(F)(F)F)cc([N+](=O)[O-])c2s1` [Compound 9] showed a minimal inhibitory concentration (MIC) of 0.217 µM (≈ 0.111 µg/mL).
`CN(Cc1cn(-c2ccc(F)cc2)nn1)c1nc(=O)c2cc(C(F)(F)F)cc([N+](=O)[O-])c2s1` [Compound 12] displayed an MIC of 0.012 µM (≈ 0.00576 µg/mL). In addition, under “168 h”, 0.012 µM (≈ 0.00576 µg/mL) was the least that counted as inhibitory (MIC).
As to `CN(Cc1cn(-c2cccc(F)c2)nn1)c1nc(=O)c2cc(C(F)(F)F)cc([N+](=O)[O-])c2s1` [Compound 13], 0.008 µM (≈ 0.00384 µg/mL) was the least that counted as inhibitory (MIC). The MIC (168 h) came to 0.008 µM (≈ 0.00384 µg/mL).
For `CN(Cc1cn(-c2ccccc2F)nn1)c1nc(=O)c2cc(C(F)(F)F)cc([N+](=O)[O-])c2s1` [Compound 14], the MIC was found to be 0.27 µM (≈ 0.13 µg/mL). This compound also came in with an MIC (168 h) of 0.27 µM (≈ 0.13 µg/mL).
As to `CN(Cc1cn(-c2cccc(Cl)c2)nn1)c1nc(=O)c2cc(C(F)(F)F)cc([N+](=O)[O-])c2s1` [Compound 15], it took 0.014 µM (≈ 0.00696 µg/mL) to inhibit growth (MIC). Under “168 h”, the MIC fell in the range of 0.014 to 0.207 µM (≈ 0.00696 to 0.103 µg/mL).
Compound `CN(Cc1cn(-c2cccc(Br)c2)nn1)c1nc(=O)c2cc(C(F)(F)F)cc([N+](=O)[O-])c2s1` [Compound 16] came in with an MIC of 0.055 µM (≈ 0.0298 µg/mL). The MIC (168 h) fell in the range of 0.014 to 0.207 µM (≈ 0.00758 to 0.112 µg/mL).
For `CN(Cc1cn(-c2cccc(I)c2)nn1)c1nc(=O)c2cc(C(F)(F)F)cc([N+](=O)[O-])c2s1` [Compound 17] the same measures were 0.133 µM (≈ 0.0782 µg/mL) and 0.014 to 0.207 µM (≈ 0.00824 to 0.122 µg/mL).
The corresponding values for `COc1cccc(-n2cc(CN(C)c3nc(=O)c4cc(C(F)(F)F)cc([N+](=O)[O-])c4s3)nn2)c1` [Compound 18] are 0.12 µM (≈ 0.0591 µg/mL) and 0.014 to 0.207 µM (≈ 0.00689 to 0.102 µg/mL).
The corresponding values for `Cc1cccc(-n2cc(CN(C)c3nc(=O)c4cc(C(F)(F)F)cc([N+](=O)[O-])c4s3)nn2)c1` [Compound 19, 2-{methyl[1-(m-tolyl)-1H-1,2,3-triazol-4-yl](methyl)amino}-BTZ] are 0.061 µM (≈ 0.0291 µg/mL) and 0.014 to 0.207 µM (≈ 0.00667 to 0.0986 µg/mL).
In turn, `CN(Cc1cn(-c2cccc(C(F)(F)F)c2)nn1)c1nc(=O)c2cc(C(F)(F)F)cc([N+](=O)[O-])c2s1` [Compound 20] displayed an MIC of 0.04 µM (≈ 0.0212 µg/mL). This compound gave an MIC (168 h) of 0.014 to 0.207 µM (≈ 0.00743 to 0.11 µg/mL).
For `CN(Cc1cn(-c2cccc(C#N)c2)nn1)c1nc(=O)c2cc(C(F)(F)F)cc([N+](=O)[O-])c2s1` [Compound 21, 3-{4-[(methyl(8-nitro-4-oxo-6-(trifluoromethyl)-4H-benzo[e][1,3]thiazin-2-yl)amino)methyl)-1H-1,2,3-triazol-1-yl)benzonitrile], the MIC was determined as 0.207 µM (≈ 0.101 µg/mL). Further, where the note is “168 h”, the MIC was 0.014 to 0.207 µM (≈ 0.00682 to 0.101 µg/mL).
For `CN(Cc1cn(-c2ccc(F)c(F)c2)nn1)c1nc(=O)c2cc(C(F)(F)F)cc([N+](=O)[O-])c2s1` [Compound 22] the same measures were 0.014 µM (≈ 0.00698 µg/mL) and below 0.023 µM.
For the compound `CN(Cc1cn(-c2cc(F)cc(F)c2)nn1)c1nc(=O)c2cc(C(F)(F)F)cc([N+](=O)[O-])c2s1` [Compound 23], the minimum inhibitory concentration (MIC) was 0.016 µM (≈ 0.00797 µg/mL). Under “168 h”, the MIC was below 0.023 µM.
Turning to `CN(Cc1cn(-c2ccc(F)cc2F)nn1)c1nc(=O)c2cc(C(F)(F)F)cc([N+](=O)[O-])c2s1` [Compound 25], inhibition of growth (MIC) required 0.023 µM (≈ 0.0115 µg/mL).
`CN(Cc1nnc(-c2cccc(F)c2)o1)c1nc(=O)c2cc(C(F)(F)F)cc([N+](=O)[O-])c2s1` [Compound 38] yielded an MIC of 0.006 µM (≈ 0.00289 µg/mL).
